In US12729186B2, “Prodrugs for sustained releasing therapeutic agents and uses thereof” (LIANGJIANG MEDICINE CO., LTD., priority 2020, dated 2026):

Experiment: Drug release assay (hydrolysis rate test in pH 7.4 / pH 2.0 buffer, HPLC)
Format: physicochemical
Details: for Hydrolysis constant Kh pH 2.0 / Hydrolysis constant Kh pH 7.4: Kh=-ln[100%-Release rate (%)]/t; for Release rate (%) pH 2.0 (6 h): pH 2.0 buffer solution; for Release rate (%) pH 2.0 (6 h) / Release rate (%) pH 7.4 (0.5 h) / Release rate (%) pH 7.4 (6 h): 37° C., 200 rpm, residual content relative to 0 h by HPLC; for Release rate (%) pH 7.4 (0.5 h) / Release rate (%) pH 7.4 (6 h): pH 7.4 buffer solution
Experimental: Preparation of pH2.0 Buffer Solution
Preparation of pH7.4 Buffer Solution
Method of Hydrolysis Rate Test
The compounds were dissolved in pH7.4/pH2.0 buffer solution, placed in a constant temperature shaker at 37° C. and 200 rpm, and sampled at 0 h, 0.5 h and 6 h respectively. The residual contents of the compounds relative to 0 h were tested at each time point.
The release rates (%) were calculated using the following equation: Release rate (%)=[A(0h)−A(xh)]/A(0h)×100%, (x=0, 0.5, 6), A(xh) is the peak area of compounds tested by HPLC at the indicated time point.
The hydrolysis constants (Kh) were calculated using the following equation: Hydrolysis constant Kh=−ln[100%−Release rate (%)]/t Results

Row | Structure (SMILES) | Hydrolysis constant Kh pH 2.0 | Release rate (%) pH 2.0 (6 h) | Hydrolysis constant Kh pH 7.4 | Release rate (%) pH 7.4 (0.5 h) | Release rate (%) pH 7.4 (6 h)
1 | CCCCN(CCCC)c1ccc(N2CCC(CCOC(=O)n3cc(F)c(=O)[nH]c3=O)CC2)cc1 [Example 11, 2-(1-(4-(Dibutylamino)phenyl)piperidin-4-yl)ethyl 5-fluoro-2,4-dioxo-3,4-dihydropyrimidine-1(2H)-carboxylate] | 0.067 | 33% | 0.117 | 5.7% | 83%
2 | CCc1c2c(nc3ccc(OC(=O)[C@@H]4CCCN4C(c4ccccc4)c4ccccc4)cc13)-c1cc3c(c(=O)n1C2)COC(=O)[C@]3(O)CC [Example 14, (S)-4,11-diethyl-4-hydroxy-3,14-dioxo-3,4,12,14-tetrahydro-1H-pyrano[3′,4′:6,7]indolizino[1,2-b]quinolin-9-yl benzhydrylprolinate] | 0.015 | 8.4% | 3.876 | 85.6% | 84.4%
3 | O=C(OCn1cc(F)c(=O)[nH]c1=O)Oc1ccc(C2CCN(CC34CC5CC(CC(C5)C3)C4)CC2)cc1 [Example 8, 4-(1-(Adamantan-1-ylmethyl)piperidin-4-yl)phenyl ((5-fluoro-2,4-dioxo-3,4-dihydropyrimidin-1(2H)-yl)methyl) carbonate] | 0.041 | 22% | 11.043 | 99.6% | 99%
4 | CCc1c2c(nc3ccc(OC(=O)CN(C4CCCCC4)C4CCCCC4)cc13)-c1cc3c(c(=O)n1C2)COC(=O)[C@]3(O)CC [Example 19, (S)-4,11-diethyl-4-hydroxy-3,14-dioxo-3,4,12,14-tetrahydro-1H-pyrano[3′,4′:6,7]indolizino[1,2-b]quinolin-9-yl dicyclohexylglycinate] | 0.041 | 21.8% | 0.865 | 35.1% | 100%
5 | CC[C@@]1(O)C(=O)OCc2c1cc1n(c2=O)Cc2cc3cc(OC(=O)CC4CCN(CC(c5ccccc5)c5ccccc5)CC4)ccc3nc2-1 [Example 13, (S)-4-ethyl-4-hydroxy-3,14-dioxo-3,4,12,14-tetrahydro-1H-pyrano[3′,4′:6,7]indolizino[1,2-b]quinolin-9-yl 2-(1-(2,2-diphenylethyl)piperidin-4-yl)acetate] | <0.001 | 0.5% | 0.042 | 2.1% | 23.3%
6 | Cn1nnc2c(C(=O)NCc3ccc(CC4CCN(C(c5ccccc5)c5ccccc5)CC4)cc3)ncn2c1=O [Example 22, N-(4-((1-benzhydrylpiperidin-4-yl)methyl)benzyl)-3-methyl-4-oxo-3,4-dihydroimidazo[5,1-d][1,2,3,5]tetrazine-8-carboxamide] | <0.001 | 0% | 0.267 | 12.5% | 85.4%
7 | Cn1nnc2c(C(=O)NC(=O)Oc3ccc(CC4CCN(C(c5ccccc5)c5ccccc5)CC4)cc3)ncn2c1=O [Example 21, 4-((1-Benzhydrylpiperidin-4-yl)methyl)phenyl (3-methyl-4-oxo-3,4-dihydroimidazo[5,1-d][1,2,3,5]tetrazine-8-carbonyl)carbamate] | <0.001 | 0% | 3.397 | 81.7% | 100%
